This passage reports ED50 and IC50 results from patent US4316839A, “Imidazodiazepine derivatives” (Hoffman-La Roche Inc., priority 1979, dated 1982).

The structures appear in SMILES notation.

As a reminder, the ED50 is the midpoint of the dose-response relation. Lower therefore signals greater potency. One may read the IC50 as the concentration needed to halve the response being measured.

The test system of assay [1] is diazepam effect in the pentetrazole test. Description: pentetrazole test: antagonism of the diazepam effect in mice. The format is in vivo. As to conditions: Mus musculus, po; mice; diazepam 5 mg/kg i.p. 1 hour and test compound 15 min before pentetrazole 120 mg/kg i.p. The method, then: This property was used as a basis for the test described hereinafter which permits the determination of compounds which are capable of antagonising the central properties of 1,4-benzodiazepines which have tranquillising activity.
The antagonistic activity of the compounds tested, i.e. their ability to counteract the activity of diazepam in the pentetrazole test, is determined by counting the mice which suffer spasmodic seizures in this test.
(§1) In the following Table there are compiled the results which have been obtained with representative compounds of formula I. The ED50 value is given for each compound listed in the Table. The ED50 is the amount of the test compound in mg/kg (p.o.) which counteracts in 50% of the animals the diazepam effect in the foregoing test. Moreover, the Table contains the IC50 value (defined hereinbefore) for all test compounds listed therein as well as details concerning the acute toxicity of certain compounds (LD50 in mg/kg following single oral administration to mice).

In assay [2] the target is specific benzodiazepine receptors in the cerebral cortex. Briefly: inhibition of the binding of tritiated diazepam at the specific benzodiazepine receptors in the cerebral cortex. The method, then: The affinity of compounds of formula I to the central benzodiazepine receptors was determined according to the method described in Life Science 20, 2101-2110 (1977) and Science 198, 849-851 (1977). According to this method, the inhibition of the binding of tritiated diazepam at the specific benzodiazepine receptors in the cerebral cortex by test substances is ascertained. The IC50 ("50% inhibiting concentration") is that concentration of the test substance which brings about a 50 percent inhibition of the specific binding of the tritiated diazepam at the specific benzodiazepine receptors in the cerebral cortex.
as §1

The mark [3] stands for this setting: compounds of formula I with A = group (a).
Setting [4] is: thieno derivatives, A = group (b).

In assay [1], `CN1Cc2c(C#N)ncn2-c2ccc(F)cc2C1=O` [Example 7, 8-fluoro-5,6-dihydro-5-methyl-6-oxo-4H-imidazo[1,5-a][1,4]benzodiazepine-3-carbonitrile] gave an ED50 of 4.2 mg/kg. In assay [2] (setting [3]), this compound gave an IC50 of 93 µM.

In assay [1], `CCOC(=O)c1ncn2c1CN(C)C(=O)c1c(Cl)cccc1-2` [Example 13, ethyl 7-chloro-5,6-dihydro-5-methyl-6-oxo-4H-imidazo[1,5-a][1,4]benzodiazepine-3-carboxylate] had an ED50 of 0.48 mg/kg. For the same compound, the IC50 in assay [2] (setting [3]) amounted to 3 µM.

In assay [1], `CC(C)OC(=O)c1ncn2c1CN(C)C(=O)c1ccccc1-2` [Example 25, isopropyl 5,6-dihydro-5-methyl-6-oxo-4H-imidazo[1,5-a][1,4]benzodiazepine 3-carboxylate] returned an ED50 of 7 mg/kg. Also, the IC50 in assay [2] (setting [3]) came to 12 µM.

The compound `CCOC(=O)c1ncn2c1CN(C)C(=S)c1cc(F)ccc1-2` [Example 6, ethyl 8-fluoro-5,6-dihydro-5-methyl-6-thioxo-4H-imidazo[1,5-a][1,4]benzodiazepine-3-carboxylate] showed an ED50 in assay [1] of 6.3 mg/kg. This compound also yielded an IC50 in assay [2] (setting [3]) of 2.5 µM.

In the case of `COC(=O)c1ncn2c1CN(C)C(=O)c1cc(F)ccc1-2` [Example 3, methyl 8-fluoro-5,6-dihydro-5-methyl-6-oxo-4H-imidazo[1,5-a][1,4]benzodiazepine-3-carboxylate], it took a dose of 4.9 mg/kg to reach the 50% effect level in assay [1] (ED50). The IC50 in assay [2] (setting [3]) came to 6 µM.

`CCOC(=O)c1ncn2c1C1C=CCN1C(=O)c1ccccc1-2` (racemic) [Example 43, ethyl (R,S)-11,13a-dihydro-9-oxo-9H-imidazo[1,5-a]pyrrolo[2,1-c][1,4]benzodiazepine-1-carboxylate] displayed an ED50 in assay [1] of 3.9 mg/kg. In assay [2] (setting [3]), this compound showed an IC50 of 2.3 µM.

With `CCOC(=O)c1ncn2c1CN(C)C(=O)c1c(C)cccc1-2` [Example 28, ethyl 5,6-dihydro-5,7-dimethyl-6-oxo-4H-imidazo[1,5-a][1,4]benzodiazepine-3-carboxylate], in assay [1], the ED50 worked out at 7.1 mg/kg. In assay [2] (setting [3]), the IC50 turned out to be 5 µM.

`CCOC(=O)c1ncn2c1[C@@H]1CCCN1C(=O)c1sccc1-2` [Example 34, ethyl (S)-10,11,12,12a-tetrahydro-8-oxo-8H-imidazo[5,1-c]pyrrolo[1,2-a]thieno[3,2-e][1,4]diazepine-1-carboxylate]: the ED50 in assay [1] stood at 1.3 mg/kg. In assay [2] (setting [4]), this compound had an IC50 of 0.0009 µM.

For `COC(=O)c1ncn2c1CN(C)C(=O)c1sccc1-2` [Example 37, methyl 5,6-dihydro-5-methyl-6-oxo-4H-imidazo[1,5-a]thieno[2,3-f][1,4]diazepine-3-carboxylate], it took a dose of 0.83 mg/kg to reach the 50% effect level in assay [1] (ED50). In assay [2] (setting [4]), this compound yielded an IC50 of 0.0012 µM.

`CC(C)OC(=O)c1ncn2c1[C@@H]1CCCN1C(=O)c1ccccc1-2` [Example 33, isopropyl (S)-11,12,13,13a-tetrahydro-9-oxo-9H-imidazo[1,5-a]pyrrolo[2,1-c][1,4]benzodiazepine-1-carboxylate] returned an ED50 in assay [1] of 18.6 mg/kg. The compound further registered an IC50 in assay [2] (setting [3]) of 3 µM.

`CCOC(=O)c1ncn2c1CN(C)C(=S)c1ccccc1-2` [Example 27, ethyl 5,6-dihydro-5-methyl-6-thioxo-4H-imidazo[1,5-a][1,4]benzodiazepine-3-carboxylate] registered an ED50 in assay [1] of 8.9 mg/kg. In assay [2] (setting [3]), this compound had an IC50 of 6 µM.

Consider `COC(=O)c1ncn2c1CN(C)C(=O)c1ccccc1-2` [Example 24, methyl 5,6-dihydro-5-methyl-6-oxo-4H-imidazo[1,5-a][1,4]benzodiazepine-3-carboxylate], for which the 50% effect level in assay [1] (ED50) was put at a dose of 13.5 mg/kg. This compound also gave an IC50 in assay [2] (setting [3]) of 9 µM.

As for `N#Cc1ncn2c1[C@@H]1CCCN1C(=O)c1ccccc1-2` [Example 42, (S)-11,12,13,13a-tetrahydro-9-oxo-9H-imidazo[1,5-a]pyrrolo[2,1-c][1,4]benzodiazepine-1-carbonitrile], the 50% effect level in assay [1] (ED50) was put at a dose of 12.1 mg/kg. In assay [2] (setting [3]), this compound yielded an IC50 of 31 µM.
